Reference: the PolyMetriX glass transition set

Row | Structure (SMILES) | glass transition temperature
1 | *c1ccc2c(c1)C(=O)N(c1ccc(C(=O)Nc3ccc(Oc4ccc(Oc5ccc(NC(=O)c6ccc(N7C(=O)c8ccc(C(*)(C(F)(F)F)C(F)(F)F)cc8C7=O)cc6)cc5)cc4)cc3)cc1)C2=O (repeat unit) | 303.00 °C
2 | *CC(*)c1ccccc1Br (repeat unit) | 149.00 °C
3 | *c1ccc(C(Cl)(Cl)C(*)Cl)cc1 (repeat unit) | 160.00 °C
4 | *c1ccc(OCCN(CCOc2ccc(-c3cc(-c4ccccc4)c4cc(Oc5ccc6nc(*)cc(-c7ccccc7)c6c5)ccc4n3)cc2)c2ccc(C(C#N)=C(C#N)C#N)cc2)cc1 (repeat unit) | 175.00 °C
5 | *Oc1ccc(N(c2ccccc2)c2ccc(-c3ccc(N(c4ccccc4)c4ccc(*)cc4)cc3)cc2)cc1 (repeat unit) | 218.00 °C
6 | *CC(*)C(=O)Oc1ccc(OC)cc1 (repeat unit) | 50.50 °C
7 | *CCCOC(=O)CCCCC(=O)O* (repeat unit) | -55.00 °C
8 | *Oc1ccc(C2(c3ccc(OC(*)=O)cc3)CCc3ccccc32)cc1 (repeat unit) | 219.00 °C
9 | *c1ccc(Cc2ccc(N3C(=O)c4ccc([Si](C)(C)c5ccc([Si](C)(C)c6ccc7c(c6)C(=O)N(*)C7=O)cc5)cc4C3=O)cc2)cc1 (repeat unit) | 295.00 °C
10 | *C1C2CCC(C2)C1S(*)(=O)=O (repeat unit) | 33.00 °C
11 | *Oc1ccc(NC(=O)c2ccc(C(=O)Nc3ccc(Oc4ccc(C5(c6ccc(*)cc6)C6CC7CC(C6)CC5C7)cc4)cc3)cc2)cc1 (repeat unit) | 264.00 °C
12 | *CC(CSC(C)C)O* (repeat unit) | -44.00 °C
13 | *c1ccc2c(c1)C(=O)N(c1cccc(P(=O)(c3cccc(N4C(=O)c5ccc(C(*)(C(F)(F)F)C(F)(F)F)cc5C4=O)c3)c3cc(C(F)(F)F)cc(C(F)(F)F)c3)c1)C2=O (repeat unit) | 247.00 °C
14 | *CC(*)n1ccc2ccccc21 (repeat unit) | 19.00 °C
15 | *CCCCCC(*)C (repeat unit) | -66.00 °C
16 | */C=C/C1CC(*)C(C#N)([Si](C)(C)O[Si](C)(C)C)C1 (repeat unit) | 88.00 °C
17 | *Sc1ccc(Sc2ccc(Sc3ccc4c(c3)Sc3ccc(*)cc3S4)cc2)cc1 (repeat unit) | 154.00 °C
18 | *NC(C)CC(*)=O (repeat unit) | 125.00 °C
19 | *c1ccc(-c2ccc(-c3ccc([Si](*)(C)C)s3)s2)s1 (repeat unit) | 45.00 °C
20 | *c1ccc(Oc2ccc(C(c3ccc(Oc4ccc(-c5nnc(*)n5-c5ccc(S(=O)(=O)c6ccccc6)cc5)cc4)cc3)(C(F)(F)F)C(F)(F)F)cc2)cc1 (repeat unit) | 211.00 °C
21 | *O[Si](C)(C)CCCCCCCC[Si](*)(C)C (repeat unit) | -88.00 °C
22 | *c1ccc(-c2nc3cc(Oc4ccc(NC(=O)c5cc(C(=O)Nc6ccc(Oc7ccc8nc(-c9ccccc9)c(*)nc8c7)cc6)cc(N6C(=O)c7ccccc7C6=O)c5)cc4)ccc3nc2-c2ccccc2)cc1 (repeat unit) | 302.00 °C
23 | *c1ccc(C2(c3ccc(-c4cc(-c5ccccc5)c5cc(-c6ccc7nc(*)cc(-c8ccccc8)c7c6)ccc5n4)cc3)c3ccccc3C(=O)c3ccccc32)cc1 (repeat unit) | 417.00 °C
24 | *CCOC(=O)CCCCCC(=O)O* (repeat unit) | -46.00 °C
25 | *CCCC(=O)O* (repeat unit) | 1.50 °C
26 | *CCc1ccc(*)c(CC)c1 (repeat unit) | 25.00 °C
27 | *c1ccc(Oc2ccc3ccc(Oc4ccc(-c5nc(*)nc(-c6ccccc6)n5)cc4)cc3c2)cc1 (repeat unit) | 255.00 °C

Further lines, results first:

Row | glass transition temperature | Structure (SMILES)
28 | 165.00 °C | *c1ccc([Si](c2ccccc2)(c2ccccc2)c2ccc(-c3ccc4c(c3)c3cc(*)ccc3n4CCCCCC#N)cc2)cc1 (repeat unit)
29 | 90.00 °C | *C(=O)OCCCCCOC(=O)c1ccc(N2C(=O)c3ccc(*)cc3C2=O)cc1 (repeat unit)
30 | 152.00 °C | *CC(O)CN(*)c1cc(C)c(/N=N/c2ccc([N+](=O)[O-])cc2)c(C)c1 (repeat unit)
31 | 311.00 °C | *C(=O)Nc1cccc(NC(=O)c2ccc3c(c2)C(=O)N(c2ccc(S(=O)(=O)c4ccc(N5C(=O)c6ccc(*)cc6C5=O)cc4)cc2)C3=O)c1 (repeat unit)
32 | 189.00 °C | *Oc1ccc(C(=O)c2cccc(NC(=O)c3ccc(C(=O)Nc4cccc(C(=O)c5ccc(*)cc5)c4)cc3)c2)cc1 (repeat unit)
33 | -38.80 °C | *c1ccc(-c2sc(-c3ccc(-c4cc(SCCCCCCCC)c(*)s4)cc3)cc2SCCCCCCCC)cc1 (repeat unit)
34 | 145.00 °C | *c1ccc(Nc2ccc(Nc3ccc(S(*)(=O)=O)cc3)cc2)cc1 (repeat unit)
35 | 110.00 °C | *CC(*)(C)C(=O)NC(=O)OCCOc1c(Br)cc(S(=O)(=O)c2cc(Br)c(OCCO)c(Br)c2)cc1Br (repeat unit)
36 | 84.00 °C | *COc1ccc(C(=O)OC(=O)c2ccc(O*)cc2)cc1 (repeat unit)
37 | 160.00 °C | *CC(*)CNc1ccc([N+](=O)[O-])cc1[N+](=O)[O-] (repeat unit)
38 | 131.00 °C | *CC(*)(C)C(=O)Oc1ccc(CC#N)cc1 (repeat unit)
39 | 78.00 °C | *CC(*)C(=O)Oc1ccc(C(=O)c2ccc(Cl)cc2)cc1 (repeat unit)
40 | 168.00 °C | *Oc1cccc(NC(=O)c2ccc(Oc3ccc(C(C)(C)c4ccc(C(C)(C)c5ccc(Oc6ccc(C(=O)Nc7ccc(*)cc7)cc6)cc5)cc4)cc3)cc2)c1 (repeat unit)
41 | 254.00 °C | *C(=O)c1ccc2c(c1)C(=O)N(c1cccc(Cc3ccc(C(=O)c4ccc(N5C(=O)c6ccc(*)cc6C5=O)cc4)cc3)c1)C2=O (repeat unit)
42 | 145.00 °C | *C(=O)CCC1(CCC(=O)N2CCN(*)CC2)c2ccccc2-c2ccccc21 (repeat unit)
43 | 281.00 °C | *C(=O)c1ccc2c(c1)C(=O)N(c1ccc(Cc3cccc(N4C(=O)c5ccc(*)cc5C4=O)c3)cc1)C2=O (repeat unit)
44 | 338.00 °C | *Nc1ccc(NC(=O)c2ccc(NC(=O)c3ccc([Si](C)(C)c4ccc(C(=O)Nc5ccc(C(*)=O)cc5)cc4)cc3)cc2)cc1 (repeat unit)
45 | 362.50 °C | *c1ccc2c(c1)C(=O)N(c1ccc(Oc3c(C(C)(C)C)cc(-c4ccc(N5C(=O)c6ccc(C(*)(C(F)(F)F)C(F)(F)F)cc6C5=O)cc4)cc3C(C)(C)C)c(C(F)(F)F)c1)C2=O (repeat unit)
46 | 100.00 °C | *CC(*)(CC(=O)OC(C)C)C(=O)OC(C)C (repeat unit)

Row | glass transition temperature | Structure (SMILES)
47 | 14.00 °C | *O[Si](C)(C)O[Si](C)(C)O[Si](C)(C)Oc1c(C)cc(-c2cc(C)c(*)c(C)c2)cc1C (repeat unit)
48 | 103.00 °C | *Oc1ccc(/C=C/c2cc(OCCCCCCCC)c(/C=C/c3ccc(Oc4cc5c6c(ccc7c8c(*)cc9c%10c(ccc(c4c67)c%108)C(=O)N(CCCCCCCC)C9=O)C(=O)N(CCCCCCCC)C5=O)cc3)cc2OCCCCCCCC)cc1 (repeat unit)
49 | 249.00 °C | *C(=O)c1cccc(C(=O)c2ccc3c(c2)C(=O)N(c2ccc(Oc4ccc(S(=O)(=O)c5ccc(Oc6ccc(N7C(=O)c8ccc(*)cc8C7=O)cc6)cc5)cc4)cc2)C3=O)c1 (repeat unit)
50 | 23.00 °C | *Oc1ccccc1C(=O)OC(=O)c1ccccc1OC(=O)C(CC)C(CC)C(*)=O (repeat unit)
51 | 73.00 °C | *O[Si](C)(C)c1cc(OCCO)c([Si](*)(C)C)cc1OCCO (repeat unit)
52 | 103.00 °C | *Nc1cc(NC(=O)c2ccc(C(*)=O)cc2)cc(-c2nc3ccccc3oc2=O)c1 (repeat unit)
53 | 107.80 °C | *CCCCCCCn1c2ccccc2c2cc(/C=C(\C#N)C(=O)OCCCCCCOC(=O)/C(C#N)=C/c3ccc4c(c3)c3ccccc3n4*)ccc21 (repeat unit)
54 | 275.00 °C | *Nc1cccc(NC(=O)c2cccc(C(*)=O)c2)c1 (repeat unit)
55 | 128.00 °C | *Oc1ccc(/C(=C/c2ccc(-c3ccc(/C=C(\c4ccccc4)c4ccc(OC(=O)CCCCC(*)=O)cc4)cc3)cc2)c2ccccc2)cc1 (repeat unit)
56 | 175.00 °C | *Oc1ccc(Oc2ccc(C(=O)c3ccccc3-c3ccccc3C(=O)c3ccc(*)cc3)cc2)cc1 (repeat unit)
57 | 245.50 °C | *c1cc(C(=O)NCCCCCCCC)cc(N2C(=O)c3ccc(-c4ccc5c(c4)C(=O)N(*)C5=O)cc3C2=O)c1 (repeat unit)
58 | 333.00 °C | *Oc1c(C)c(C)c(NC(=O)c2ccc(C(=O)Nc3ccc(*)cc3)cc2)c(C)c1C (repeat unit)
59 | 94.00 °C | *OCCOC(=O)c1ccc(C(=O)OCCOc2nc(-c3ccc(OCCCC)cc3)nc(*)c2-c2ccc(OC)cc2)cc1 (repeat unit)
60 | 234.00 °C | *Oc1c(-c2ccccc2)cc(*)cc1-c1cccc2ccccc12 (repeat unit)
61 | 257.00 °C | *c1ccc(Oc2cc(C(C)(C)C)ccc2Oc2ccc(N3C(=O)c4ccc(-c5ccc6c(c5)C(=O)N(*)C6=O)cc4C3=O)cc2)cc1 (repeat unit)
62 | 342.00 °C | *C(=O)Nc1ccc(C2(c3ccc(N4C(=O)c5ccc(*)cc5C4=O)cc3)CCC(C(C)(C)CC)CC2)cc1 (repeat unit)
63 | 91.00 °C | *Oc1ccc(OC(=O)c2cc(OCCCc3ccccc3)c(C(*)=O)cc2OCCCc2ccccc2)cc1C (repeat unit)
64 | 177.00 °C | *c1cc(C(c2ccc(OCCN(C)c3ccc(/C=C/C4=CC(=C(/C#N)C(=O)OCCc5ccccc5)/CC(C)(C)C4)cc3)c(N3C(=O)c4ccc(Oc5ccc6c(c5)C(=O)N(*)C6=O)cc4C3=O)c2)(C(F)(F)F)C(F)(F)F)ccc1OCCN(c1ccccc1)c1ccc(/C=C/C2=CC(=C(/C#N)C(=O)OCCc3ccccc3)/CC(C)(C)C2)cc1 (repeat unit)
65 | 292.00 °C | *CC(=O)Nc1ccc(NC(=O)c2ccc3c(c2)C(=O)N(*)C3=O)cc1 (repeat unit)
